Laboratory results taken from US20250101042A1, “KRAS G12D MODULATING COMPOUNDS” (Gilead Sciences, Inc., priority 2023, published 2025).

Columns and labels:
GDP-loaded KRAS G12D = GDP-loaded KRAS G12D (Homo sapiens, UniProt P01116, G12D); test: KRAS G12D (GDP) Biochemical Assay (TR-FRET probe displacement); assay type: binding; conditions: 0.5 nM enzyme, 2 hours at room temperature
Procedure: Example A. KRAS G12D (GDP) Biochemical Assay
Compounds were tested for binding to GDP-loaded KRAS G12D in a 384-well assay format using a TR-FRET probe displacement assay in buffer consisting of 50 mM Hepes (pH 7.4), 150 mM NaCl, 5 mM MgCl2 and 0.005% Tween-20. […] Compounds were serially diluted (1:3) in DMSO. The LabCyte ECHO Acoustic dispenser system was used to pre-spot the assay plates (384-well Non-Binding Surface plates, Corning, Catalog #3824) with 50 nL of compound. The compounds were pre-incubated with 5 μL of 2× final enzyme concentration for 30 minutes before adding 5 μL of 2× final concentration of Eu-streptavidin and TR-FRET probe (10 μL final reaction volume). The plates were incubated at room temperature for 2 hours before measuring TR-FRET ratio on the Envision plate reader. IC50 values were defined as the compound concentration that causes a 50% decrease in TR-FRET ratio and were calculated using a sigmoidal dose-response model to generate curve fits.

GP2D (KRAS G12D) cells = test: 2D Cell Viability Assay (CellTiter-Glo); assay type: cell-based; conditions: 4 days, CellTiter-Glo luminescence
Procedure: Example B. 2D Cell Viability Assay
Compounds were tested in a 384-well format for their ability to inhibit the viability of GP2D (KRAS G12D) cells in 2D assays. Compounds were serially diluted (1:3) in DMSO. The LabCyte ECHO Acoustic dispenser system was used to pre-spot assay plates with 200 nL of test molecule per well. 1000 cells/well (40 μL volume per well) in RPMI medium with 10% FBS, and Penicillin-Streptomycin-Glutamine were plated in pre-spotted 384-well plates (Greiner, Catalog #781076) on the BioTEK EL406 liquid dispenser with a 5 μL dispensing cassette (BioTek 7170011). The plates were incubated at 37° C., 5% CO2 for 4 days before addition of CellTiter-Glo (CTG) reagent and measurement of luminescence signal. EC50 values were defined as the compound concentration that causes a 50% decrease in luminescence signal and were calculated using a sigmoidal dose-response model to generate curve fits.

GDP-loaded KRAS G12D, sequence (P01116 1-188 isoform P01116-2 G12D): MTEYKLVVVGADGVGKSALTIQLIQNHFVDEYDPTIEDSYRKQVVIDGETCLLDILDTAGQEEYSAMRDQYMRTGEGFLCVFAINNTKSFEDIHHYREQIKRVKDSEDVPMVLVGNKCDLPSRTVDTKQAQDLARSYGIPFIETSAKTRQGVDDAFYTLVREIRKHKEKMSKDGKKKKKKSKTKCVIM

Compound	IC50 (GDP-loaded KRAS G12D) [nM]	EC50 (GP2D (KRAS G12D) cells; GP2d, 96 h) [nM]	EC50 (GP2D (KRAS G12D) cells) [nM]
Nc1nc2c(F)ccc(-c3nc4c5c(nc(OC[C@@]67CCCN6C[C@H](F)C7)nc5c3F)N3C[C@H]5CC[C@H](N5)[C@H]3CC4)c2s1 [Example 20, 4-fluoro-7-((5aR,6S,9R)-1-fluoro-12-(((2R,7aS)-2-fluorotetrahydro-1H-pyrrolizin-7a(5H)-yl)methoxy)-4,5,5a,6,7,8,9,10-octahydro-3,10a,11,13,14-pentaaza-6,9-methanonaphtho[1,8-ab]heptalen-2-yl)benzo[d]thiazol-2-amine]	8.2	> 100	
N#Cc1c(N)sc2cccc(-c3nc4c5c(nc(OC[C@@]67CCCN6C[C@H](F)C7)nc5c3F)N3C[C@H]5CC[C@H](N5)[C@H]3CCC4)c12 [Example 12, 2-amino-4-((6aR,7S,10R)-1-fluoro-13-(((2R,7aS)-2-fluorotetrahydro-1H-pyrrolizin-7a(5H)-yl)methoxy)-5,6,6a,7,8,9,10,11-octahydro-4H-3,11a,12,14,15-pentaaza-7,10-methanocyclohepta[4,5]cycloocta[1,2,3-de]naphthalen-2-yl)benzo[b]thiophene-3-carbonitrile]	0.17	3.5	
C[C@H]1Cc2c(Cl)c(-c3ncc(F)c4sc(N)c(C#N)c34)c(F)c3nc(OC[C@@]45CCCN4C[C@H](F)C5)nc(c23)N2C[C@H]3CC[C@H](N3)[C@H]12 (atropisomer, axis not shown; (aS)) [Example 56, 2-amino-4-((1S,4R,11S,14S,14aS)-12-chloro-10-fluoro-8-(((2R,7aS)-2-fluorotetrahydro-1H-pyrrolizin-7a(5H)-yl)methoxy)-14-methyl-1,2,3,4,5,13,14,14a-octahydro-1,4-epiminoazepino[1′,2′:1,7]azepino[2,3,4-de]quinazolin-11-yl)-7-fluorothieno[3,2-c]pyridine-3-carbonitrile]	0.11	2	
Cc1cc(N)nc(-c2c(Cl)c3c4c(nc(OC[C@@]56CCCN5C[C@H](F)C6)nc4c2F)N2C[C@H]4CC[C@H](N4)[C@H]2CCC3)c1C(F)(F)F (single isomer, unassigned) [Example 2]	8.8	65	
Cc1cc(N)nc(-c2c(F)c3c4c(nc(OC[C@@]56CCCN5C[C@H](F)C6)nc4c2F)N2C[C@H]4CC[C@H](N4)[C@H]2CC3)c1C(F)(F)F [Example 19, 6-((1S,4R,14aR)-10,12-difluoro-8-(((2R,7aS)-2-fluorotetrahydro-1H-pyrrolizin-7a(5H)-yl)methoxy)-1,2,3,4,5,13,14,14a-octahydro-1,4-epiminoazepino[1′,2′:1,7]azepino[2,3,4-de]quinazolin-11-yl)-4-methyl-5-(trifluoromethyl)pyridin-2-amine]	0.18	3.3	
C#Cc1c(F)ccc2cc(N)nc(-c3c(Cl)c4c5c(nc(OC[C@@]67CCCN6C[C@H](F)C7)nc5c3F)N3C[C@H]5CC[C@H](N5)[C@@H]3[C@@H](C)C4)c12 (atropisomer, axis not shown; (aS)) [Example 48, 1-((1S,4R,11R,14S,14aS)-12-chloro-10-fluoro-8-(((2R,7aS)-2-fluorotetrahydro-1H-pyrrolizin-7a(5H)-yl)methoxy)-14-methyl-1,2,3,4,5,13,14,14a-octahydro-1,4-epiminoazepino[1′,2′:1,7]azepino[2,3,4-de]quinazolin-11-yl)-8-ethynyl-7-fluoroisoquinolin-3-amine]		8.1	
Nc1cc(Cl)c(C(F)F)c(-c2nc3c4c(nc(OC[C@@]56CCCN5C[C@H](F)C6)nc4c2F)N2C[C@H]4CC[C@H](N4)[C@H]2CCC3)n1 [Example 24, 4-chloro-5-(difluoromethyl)-6-((6aR,7S,10R)-1-fluoro-13-(((2R,7aS)-2-fluorotetrahydro-1H-pyrrolizin-7a(5H)-yl)methoxy)-5,6,6a,7,8,9,10,11-octahydro-4H-3,11a,12,14,15-pentaaza-7,10-methanocyclohepta[4,5]cycloocta[1,2,3-de]naphthalen-2-yl)pyridin-2-amine]	11	> 100	
C=Cc1c(-c2nc(N)cc(C)c2C(F)(F)F)c(F)c2nc(OC[C@@]34CCCN3C[C@H](F)C4)nc3c2c1CC[C@@H]1[C@@H]2CC[C@H](CN31)N2 [Example 15, 6-((1S,4R,14aR)-10-fluoro-8-(((2R,7aS)-2-fluorotetrahydro-1H-pyrrolizin-7a(5H)-yl)methoxy)-12-vinyl-1,2,3,4,5,13,14,14a-octahydro-1,4-epiminoazepino[1′,2′:1,7]azepino[2,3,4-de]quinazolin-11-yl)-4-methyl-5-(trifluoromethyl)pyridin-2-amine]	0.43	24	
Cc1cc(N)nc(-c2c(Cl)c3c4c(nc(OC[C@@]56CCCN5C[C@H](F)C6)nc4c2F)N2C[C@H]4CC[C@H](N4)[C@H]2CC3)c1C(F)(F)F (single isomer, unassigned) [Example 6]	0.05		1.2
Cc1cc(N)nc(-c2c(Br)c3c4c(nc(OC[C@@]56CCCN5C[C@H](F)C6)nc4c2F)N2C[C@H]4CC[C@H](N4)[C@H]2CC3)c1C(F)(F)F [Example 14, 6-((1S,4R,14aR)-12-bromo-10-fluoro-8-(((2R,7aS)-2-fluorotetrahydro-1H-pyrrolizin-7a(5H)-yl)methoxy)-1,2,3,4,5,13,14,14a-octahydro-1,4-epiminoazepino[1′,2′:1,7]azepino[2,3,4-de]quinazolin-11-yl)-4-methyl-5-(trifluoromethyl)pyridin-2-amine]	0.24	2.5	
N#Cc1c(N)sc2c(F)ccc(-c3c(F)c4c5c(nc(OC[C@@]67CCCN6C[C@H](F)C7)nc5c3F)N3C[C@H]5CC[C@H](N5)[C@H]3CC4)c12 (single isomer, unassigned) [Example 60]	0.03		1.8
C[C@H]1Cc2c(Cl)c(-c3ccc(F)c4sc(N)c(C#N)c34)c(F)c3nc(OC[C@@]45CCCN4C[C@H](F)C5)nc(c23)N2C[C@H]3CC[C@H](N3)[C@H]12 (atropisomer, axis not shown; (aS)) [Example 52, 2-amino-4-((1S,4R,11R,14S,14aS)-12-chloro-10-fluoro-8-(((2R,7aS)-2-fluorotetrahydro-1H-pyrrolizin-7a(5H)-yl)methoxy)-14-methyl-1,2,3,4,5,13,14,14a-octahydro-1,4-epiminoazepino[1′,2′:1,7]azepino[2,3,4-de]quinazolin-11-yl)-7-fluorobenzo[b]thiophene-3-carbonitrile]	0.03		
Cc1cc(N)nc(-c2nc3c4c(nc(OC[C@@]56CCCN5C[C@H](F)C6)nc4c2F)N2C[C@H]4CC[C@H](N4)[C@H]2C[C@H](C)C3)c1C(F)(F)F [Example 18, 6-((5S,6aR,7S,10R)-1-fluoro-13-(((2R,7aS)-2-fluorotetrahydro-1H-pyrrolizin-7a(5H)-yl)methoxy)-5-methyl-5,6,6a,7,8,9,10,11-octahydro-4H-3,11a,12,14,15-pentaaza-7,10-methanocyclohepta[4,5]cycloocta[1,2,3-de]naphthalen-2-yl)-4-methyl-5-(trifluoromethyl)pyridin-2-amine]	83	> 100	
C#Cc1c(F)ccc2cc(N)nc(-c3c(Cl)c4c5c(nc(OC[C@@]67CCCN6C[C@H](F)C7)nc5c3F)N3C[C@H]5CC[C@H](N5)[C@H]3CC4)c12 [Example 23, 1-((1S,4R,14aR)-12-chloro-10-fluoro-8-(((2R,7aS)-2-fluorotetrahydro-1H-pyrrolizin-7a(5H)-yl)methoxy)-1,2,3,4,5,13,14,14a-octahydro-1,4-epiminoazepino[1′,2′:1,7]azepino[2,3,4-de]quinazolin-11-yl)-8-ethynyl-7-fluoroisoquinolin-3-amine]	0.16	6.1	
Cc1cc(N)[n+]([O-])c(-c2nc3c4c(nc(OC[C@@]56CCCN5C[C@H](F)C6)nc4c2F)N2C[C@H]4CC[C@H](N4)[C@H]2CCC3)c1C(F)(F)F [Example 8, 6-amino-2-((6aR,7S,10R)-1-fluoro-13-(((2R,7aS)-2-fluorotetrahydro-1H-pyrrolizin-7a(5H)-yl)methoxy)-5,6,6a,7,8,9,10,11-octahydro-4H-3,11a,12,14,15-pentaaza-7,10-methanocyclohepta[4,5]cycloocta[1,2,3-de]naphthalen-2-yl)-4-methyl-3-(trifluoromethyl)pyridine 1-oxide]	> 100	> 100	
Cc1cc(N)nc(-c2cc3c4c(nc(OC[C@@]56CCCN5C[C@H](F)C6)nc4c2F)N2C[C@H]4CC[C@H](N4)[C@H]2CC3)c1C(F)(F)F [Example 9, 6-((1S,4R,14aR)-10-fluoro-8-(((2R,7aS)-2-fluorotetrahydro-1H-pyrrolizin-7a(5H)-yl)methoxy)-1,2,3,4,5,13,14,14a-octahydro-1,4-epiminoazepino[1′,2′:1,7]azepino[2,3,4-de]quinazolin-11-yl)-4-methyl-5-(trifluoromethyl)pyridin-2-amine]	2.5	37	
